The source made the active and inactive calls.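 How the source made its calls: active means fitted curve reaches a 40% rise in fluorescent cells at or below the top valid dose; inactive means opposite-direction effect, or the rest.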
Assay: autofluorescent compounds in non-GFP fibroblasts, dose response, artefact control for X-chromosome reactivation project, imaging, mTEFS fibroblasts, cherry-pick (AID 743396);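 further: raw share of Hoechst-counted cells scored GFP positive without control normalization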
Settings: mTEFS fibroblasts autofluorescence, GFP-channel imaging, 3 days, at 19.5 µM (top of the series)

## CN(CC(=O)Nc1ccc(Cl)c(Cl)c1)CC(=O)Nc1ccc2c(c1)OCO2
Cells pretreated with 5-aza-dC
  % fluorescent cells increase: 0% (inactive)

## CN1c2ccc(-c3ccc(C#N)cc3)cc2[C@@H]2[C@@H](CCN2C(=O)NC2CCCCC2)[C@H]1CO
Cells pretreated with 5-aza-dC
  % fluorescent cells increase: 0.092% (inactive)

## CC1CC(C)CN(C(=O)C(C)N2CCN(S(=O)(=O)c3ccccc3F)CC2)C1 (stereo not given)
Cells pretreated with 5-aza-dC
  % fluorescent cells increase: 0.338% (inactive)

## COc1cccc(CNC(=O)C(Cc2ccccc2)n2cccc2)c1 (stereo not given)
Cells pretreated with 5-aza-dC
  % fluorescent cells increase: 0% (inactive)

## O=C(c1cccc2ccccc12)C1CCCN(Cc2ccon2)C1 (stereo not given)
  % fluorescent cells increase: 0% (inactive)

## COc1ccc(NC(=O)CCc2ccccc2)cc1S(=O)(=O)N1CCCCC1
Cells pretreated with 5-aza-dC
  % fluorescent cells increase: 0.183% (inactive)

## Cc1cc(-c2nc(C)c(-c3nnc(SCC(=O)Nc4ccc(Cl)cc4)n3C)s2)no1
Cells pretreated with 5-aza-dC
  % fluorescent cells increase: 0% (inactive)

## O=C(CCn1nc(-c2ccc(Cl)cc2)c2ccccc2c1=O)NN1CCOCC1
Cells pretreated with 5-aza-dC
  % fluorescent cells increase: 0.116% (inactive)

## CCCNNC(=O)C(O)(c1ccccc1)c1ccccc1
Cells pretreated with 5-aza-dC
  % fluorescent cells increase: 0.02% (inactive)

## COC(=O)c1cc(NS(=O)(=O)c2ccc(NC(C)=O)cc2)ccc1Cl
Cells pretreated with 5-aza-dC
  % fluorescent cells increase: 0% (inactive)

## O=C(O)CSc1ncccn1
Cells pretreated with 5-aza-dC
  % fluorescent cells increase: 0.143% (inactive)

## Cc1cccc(CS(=O)(=O)Cc2ccc(C(=O)NCc3cccs3)o2)c1
Cells pretreated with 5-aza-dC
  % fluorescent cells increase: 0.029% (inactive)

## COc1ccc(-c2ccc(C3[C@@H]4CN(S(=O)(=O)c5ccccc5C)C[C@H]3N4)cc2)cc1 (stereo not given in full)
Cells pretreated with 5-aza-dC
  % fluorescent cells increase: 0% (inactive)

## C(CCCN1CCCCC1)CCN1CCCCC1
Cells pretreated with 5-aza-dC
  % fluorescent cells increase: 0.016% (inactive)

## O=C(Cc1ccccn1)N1CCCCN2[C@H](C1)[C@@H](c1ccc(-c3ccccc3F)cc1)[C@@H]2CO
  % fluorescent cells increase: 0.674% (inactive)

## O=C1CSC(c2cccnc2)N1Cc1ccc(Cl)cc1Cl (stereo not given)
Cells pretreated with 5-aza-dC
  % fluorescent cells increase: 0% (inactive)

## COP(=S)(OC)Oc1ccc(Sc2ccc(OP(=S)(OC)OC)cc2)cc1
  % fluorescent cells increase: 0.075% (inactive)

## COc1cc(/C=C(\C#N)c2nc3ccccc3o2)ccc1O
Cells pretreated with 5-aza-dC
  % fluorescent cells increase: 2.54% (inactive)

## COc1ccc(S(=O)(=O)Nc2ccc3c(c2)C(=O)N([C@@H](C)CO)C[C@H](C)[C@H](CN(C)C(=O)CCCN(C)C)OCCCC[C@H](C)O3)cc1
Cells pretreated with 5-aza-dC
  % fluorescent cells increase: 0.13% (inactive)

## Cc1cc(=O)oc2cc3c(cc12)CCCN3
  % fluorescent cells increase: 0.269% (inactive)

## Nc1nc(C2CCOCC2)cs1
Cells pretreated with 5-aza-dC
  % fluorescent cells increase: 0.017% (inactive)

## CN(C)S(=O)(=O)c1cccc(C(=O)NCC2(N3CCOCC3)CCCCC2)c1
Cells pretreated with 5-aza-dC
  % fluorescent cells increase: 0.019% (inactive)

## Cc1ccccc1OCC(O)CNC1CCC(NCC(O)COc2ccccc2C)CC1 (stereo not given)
Cells pretreated with 5-aza-dC
  % fluorescent cells increase: 0% (inactive)

## CCCN1CCN(C(=O)C2CCN(c3nnc(C)c4c(C)n(-c5ccc(C)cc5)nc34)CC2)CC1
Cells pretreated with 5-aza-dC
  % fluorescent cells increase: 0.895% (inactive)

## CC(=O)Nc1ccc(S(=O)(=O)N(C)c2ccc(OCC(=O)NCCc3ccccc3F)cc2)cc1
Cells pretreated with 5-aza-dC
  % fluorescent cells increase: 0.014% (inactive)

## COc1cc(/C=C2\SC(=S)N(N3CCOCC3)C2=O)cc(OC)c1OC
Cells pretreated with 5-aza-dC
  % fluorescent cells increase: -0.007% (inactive)

## Cc1cc(=O)[nH]c(N/N=C/c2cc(C)n(-c3ccccc3)c2C)n1
Cells pretreated with 5-aza-dC
  % fluorescent cells increase: 0% (inactive)

## COc1ccc(C(=O)CN2Cc3ccccc3C2=N)cc1
Cells pretreated with 5-aza-dC
  % fluorescent cells increase: 0.041% (inactive)

## COc1ccc2c3c(n(C)c2c1)[C@H](CO)N(C(=O)CN1CCOCC1)CC31CCN(C(=O)Nc2cccc(F)c2)CC1
Cells pretreated with 5-aza-dC
  % fluorescent cells increase: 0% (inactive)

## Cc1nn(-c2ccccc2)c(N)c1N=O
Cells pretreated with 5-aza-dC
  % fluorescent cells increase: 0% (inactive)

## CC(=O)Nc1sc(N/N=C/c2ccc(N(C)C)cc2)nc1-c1ccc(C)cc1
Cells pretreated with 5-aza-dC
  % fluorescent cells increase: -0.004% (inactive)

## Cc1ccc(C)c(OCCC(=O)Nc2cc(S(=O)(=O)N3CCCCC3)ccc2C)c1
Cells pretreated with 5-aza-dC
  % fluorescent cells increase: 13% (inactive)

## Cc1nn(-c2ccccc2)c2ncc(C(=O)c3cc(Cl)ccc3O)cc12
Cells pretreated with 5-aza-dC
  % fluorescent cells increase: 0% (inactive)

## CCOC(=O)N1CCN(Cc2cc(Cl)c3cccnc3c2O)CC1
Cells pretreated with 5-aza-dC
  % fluorescent cells increase: 0% (inactive)

## Cn1c(NC(=O)c2ccc(F)cc2)c(-c2ccccn2)c(=O)c2ccccc21
Cells pretreated with 5-aza-dC
  % fluorescent cells increase: 0.007% (inactive)

## COc1ccc2c3c([nH]c2c1)[C@H](CO)N(C(=O)c1cccnc1)CC31CCN(Cc2ccccc2)CC1
Cells pretreated with 5-aza-dC
  % fluorescent cells increase: 0.458% (inactive)

## CCN1CCN(c2cc(C)c3cc(NC(=O)c4cccs4)ccc3n2)CC1
Cells pretreated with 5-aza-dC
  % fluorescent cells increase: 0.257% (inactive)

## CC(C)n1c(NCc2cc(Cl)ccc2O)nc2ccccc21
Cells pretreated with 5-aza-dC
  % fluorescent cells increase: -0.007% (inactive)

## Cc1ccc2[nH]c(C(=O)O)c(NC(=O)[C@@H]3C[C@@H]3c3ccccc3)c2c1
Cells pretreated with 5-aza-dC
  % fluorescent cells increase: 0.266% (inactive)

## CCCCn1nnnc1C(c1ccccc1)N1CCN(c2ccc(C)cc2)CC1 (stereo not given)
Cells pretreated with 5-aza-dC
  % fluorescent cells increase: -0.003% (inactive)

## COc1ccc2nc(SCC(=O)Nc3ccccc3OC)[nH]c2c1
Cells pretreated with 5-aza-dC
  % fluorescent cells increase: 0.385% (inactive)

## CCC1Oc2ccc(C)cc2N(CC(=O)N2CCCC2)C1=O (stereo not given)
Cells pretreated with 5-aza-dC
  % fluorescent cells increase: 0.001% (inactive)

## Nc1c(C(=O)O)cnn1-c1ccc([N+](=O)[O-])cc1
Cells pretreated with 5-aza-dC
  % fluorescent cells increase: 0.002% (inactive)

## Cc1cccc(NC(=O)Cn2cnc3c(oc4nc5c(cc43)COC(C)(C)C5)c2=O)c1
Cells pretreated with 5-aza-dC
  % fluorescent cells increase: 2.35% (inactive)

## CC(=O)OCCNc1cc(Sc2nc3ccccc3[nH]2)c2nonc2c1[N+](=O)[O-]
Cells pretreated with 5-aza-dC
  % fluorescent cells increase: 9.92% (inactive)

## COc1ccc(OCCN2CCC(C(=O)NC(c3ccc(C)cc3)c3ccccn3)CC2)cc1 (stereo not given)
Cells pretreated with 5-aza-dC
  % fluorescent cells increase: 0.021% (inactive)

## Cc1cccc(OCC(=O)N(C)c2c(N)n(Cc3ccccc3)c(=O)[nH]c2=O)c1C
Cells pretreated with 5-aza-dC
  % fluorescent cells increase: 0.02% (inactive)

## COc1cccc(-c2ccc(C3[C@@H]4CN(C(=O)C5CCCCC5)C[C@H]3N4)cc2)c1 (stereo not given in full)
Cells pretreated with 5-aza-dC
  % fluorescent cells increase: 0% (inactive)

## CNc1ccc([N+](=O)[O-])cc1C(=O)O
Cells pretreated with 5-aza-dC
  % fluorescent cells increase: -0.007% (inactive)

## Cc1cc(NC(=O)CSc2nnc(-c3c[nH]c4ccccc34)n2-c2ccc(F)cc2)no1
Cells pretreated with 5-aza-dC
  % fluorescent cells increase: 0.026% (inactive)

## CC(=NNC(=S)Nc1cccc(Cl)c1)c1ccccn1
Cells pretreated with 5-aza-dC
  % fluorescent cells increase: 0% (inactive)

## O=[N+]([O-])/C=C/c1ccc2c(ccn2Cc2ccccc2)c1
Cells pretreated with 5-aza-dC
  % fluorescent cells increase: 0% (inactive)

## O=C(CSc1nc2ccccc2[nH]1)N/N=C/C=C/c1ccccc1[N+](=O)[O-]
Cells pretreated with 5-aza-dC
  % fluorescent cells increase: 0.094% (inactive)

## CC1Oc2ccccc2C=C1/C=N\NC(=O)c1cccnc1 (stereo not given)
Cells pretreated with 5-aza-dC
  % fluorescent cells increase: 0% (inactive)

## COc1ccc(NC(=O)COc2ccc(C)c(C)c2)cc1S(=O)(=O)N1CCCCC1
Cells pretreated with 5-aza-dC
  % fluorescent cells increase: 0.026% (inactive)

## O=C(c1ccc(S(=O)(=O)c2ccc(Cl)cc2)cc1)N1CCOCC1
Cells pretreated with 5-aza-dC
  % fluorescent cells increase: 0.948% (inactive)

## CC(C)OC(=O)CC(=O)CSc1nc(-c2ccc(F)cc2)cc(-c2ccccc2)c1C#N
Cells pretreated with 5-aza-dC
  % fluorescent cells increase: 0.594% (inactive)

## COc1ccccc1C(=O)Nc1nnc(S(=O)(=O)N2CCCCCC2)s1
Cells pretreated with 5-aza-dC
  % fluorescent cells increase: 0.055% (inactive)

## Cc1ccc(S(=O)(=O)Nc2cccc3c2O[C@H](CN(C)C(=O)Nc2cccc4ccccc24)[C@H](C)CN([C@H](C)CO)C3=O)cc1
Cells pretreated with 5-aza-dC
  % fluorescent cells increase: 0.048% (inactive)

## COc1cc(CNc2nc3ccccc3n2C)cc(OC)c1OC
Cells pretreated with 5-aza-dC
  % fluorescent cells increase: 0% (inactive)

## Cc1ccc(N2C(=O)C3C4C=CC(CNC(=S)N5CCN(c6ccccc6)CC5)(O4)C3C2=O)cc1 (stereo not given)
Cells pretreated with 5-aza-dC
  % fluorescent cells increase: 1.71% (inactive)

## O=C(NNC(=O)c1cc2ccccc2o1)c1ccc(Cl)cc1
Cells pretreated with 5-aza-dC
  % fluorescent cells increase: 0.148% (inactive)

## COC(=O)c1ccc(NC(=O)c2nc(S(=O)(=O)Cc3cccc(C)c3)ncc2Cl)cc1
Cells pretreated with 5-aza-dC
  % fluorescent cells increase: -0.007% (inactive)

## O=C(N/N=C/c1ccc2cccnc2c1)c1nc2ccccc2c(=O)[nH]1
Cells pretreated with 5-aza-dC
  % fluorescent cells increase: 0.022% (inactive)

## C[C@@H]1CN([C@@H](C)CO)S(=O)(=O)c2ccc(C#CC3CC3)cc2O[C@H]1CN(C)Cc1ccc(F)cc1
Cells pretreated with 5-aza-dC
  % fluorescent cells increase: 0.107% (inactive)

## C[C@H](CO)N1C[C@H](C)[C@H](CN(C)Cc2ccccc2)Oc2ccc(NS(C)(=O)=O)cc2C1=O
Cells pretreated with 5-aza-dC
  % fluorescent cells increase: 0.123% (inactive)

## O=C(C[C@H]1CC[C@H]2[C@@H](COC[C@@H](O)CN2C(=O)Nc2ccccc2)O1)NCCc1ccncc1
Cells pretreated with 5-aza-dC
  % fluorescent cells increase: 0.044% (inactive)

## O=C(Nc1c(Cl)cccc1Cl)Oc1cccc2cccnc12
Cells pretreated with 5-aza-dC
  % fluorescent cells increase: 6.89% (inactive)

## Cc1ccnc(NS(=O)(=O)c2ccc3c(c2)CCO3)c1
Cells pretreated with 5-aza-dC
  % fluorescent cells increase: 0.175% (inactive)

## Cc1ccc(-c2nc(CS(=O)CC(=O)NCCCN3CC(C)CC(C)C3)c(C)o2)cc1 (stereo not given)
Cells pretreated with 5-aza-dC
  % fluorescent cells increase: 0.023% (inactive)

## Cc1ccc(NC(=O)c2ncn(CCCNCCCN(C)C)n2)cc1C
Cells pretreated with 5-aza-dC
  % fluorescent cells increase: 0% (inactive)

## Cc1ccc(NC(=O)c2cc(N3C(=O)C=CC3=O)ccc2N2CCOCC2)cc1Cl
Cells pretreated with 5-aza-dC
  % fluorescent cells increase: -0.004% (inactive)

## CCOC(=O)c1sc(Nc2ccc(Br)cc2)nc1C
Cells pretreated with 5-aza-dC
  % fluorescent cells increase: 1.37% (inactive)

## CC1C=NC(S(=O)(=O)N2CC[C@@H]3[C@@H](CO)N(C)c4ccc(-c5ccccc5)cc4[C@@H]32)=N1 (stereo not given in full)
Cells pretreated with 5-aza-dC
  % fluorescent cells increase: 0% (inactive)

## CCC(C)c1nc2ccsc2c(N2CCOC2=O)c1-c1ccccc1 (stereo not given)
Cells pretreated with 5-aza-dC
  % fluorescent cells increase: -0.011% (inactive)

## O=C(C[C@@H]1C[C@@H]2c3cc(NC(=O)C4CCC4)ccc3O[C@@H]2[C@@H](CO)O1)NCc1ccc(Cl)cc1
Cells pretreated with 5-aza-dC
  % fluorescent cells increase: 0.34% (inactive)

## C=Cc1cnc([N+](=O)[O-])n1C
Cells pretreated with 5-aza-dC
  % fluorescent cells increase: 0.007% (inactive)

## CCOCCCNC(=O)C(c1ccc(C)cc1)N(Cc1cccs1)C(=O)c1ccccn1 (stereo not given)
Cells pretreated with 5-aza-dC
  % fluorescent cells increase: 0% (inactive)

## COc1ccc(CN(C)C[C@H]2OCCCC[C@H](C)Oc3ccc(NC(=O)Nc4ccc(F)cc4)cc3C(=O)N([C@H](C)CO)C[C@H]2C)cc1
Cells pretreated with 5-aza-dC
  % fluorescent cells increase: 0.183% (inactive)

## CCc1ccc(NS(=O)(=O)c2cccc3nonc23)cc1
Cells pretreated with 5-aza-dC
  % fluorescent cells increase: 5.79% (inactive)

## OCC[n+]1c2ccccc2nc2ccc(N3CCOCC3)cc21
  % fluorescent cells increase: 0% (inactive)

## COc1ccc(N2CCN(C(CNC(=O)c3ccc4c(c3)OCO4)c3ccco3)CC2)cc1 (stereo not given)
Cells pretreated with 5-aza-dC
  % fluorescent cells increase: 0% (inactive)

## O=C(CCC(=O)Nc1cccnc1)Nc1cccnc1
Cells pretreated with 5-aza-dC
  % fluorescent cells increase: 0.042% (inactive)

## COc1cc(NC(C)CCc2ccccc2)cc(OC)c1OC (stereo not given)
Cells pretreated with 5-aza-dC
  % fluorescent cells increase: 0% (inactive)

## CCOc1ccc(N2C(=O)CC(Sc3nc(O)c(CC)c(=O)[nH]3)C2=O)cc1 (stereo not given)
Cells pretreated with 5-aza-dC
  % fluorescent cells increase: -0.007% (inactive)

Reference: PubChem BioAssay AID743396 (Broad Institute, 2014)
